The results in this text go back to US9856288B2, “Tripeptide epoxyketone compound constructed by heterocycle and preparation method and use thereof” (ZHEJIANG UNIVERSITY, priority 2014, dated 2018).

SMILES strings stand for the structures. Values joined by “and” are separate entries in the source; they are usually repeats but may differ in a detail not shown here. Identical values can stand only once. Like-named read-outs stand apart in the source and are kept apart here. A value given as a limit tells only on which side of the number the result lay.

Data set [1] in a line: MTT proliferation inhibition, NCI-H929.
Method: (§3) Experimental Method: Cell viability was determined by MTT method preformed as follows. Cells grown at the logarithmic growth phase was digested with a 0.01% trypsin, counted, plated in a 96-cell plate at a cell density of 2.0*10^3/well for 100 ml, and cultured in a 5% CO2 incubator at a temperature of 37° C. overnight. For each of the compounds, a gradient of six concentrations were set, in triplicate for each concentration. […] 20 ml of 5 mg/ml MTT was added to each of the cells. After incubation at a temperature of 37° C. for 3 h, supernatant was removed by suction. 100 ml of DMSO was added for dissolution. Absorption at 550 nm (L1) was determined by using SpectraMAX 340 with a reference wavelength of 690 nm (L2). The values of (L1-L2) were plotted against various concentrations, and fitted into a formula to give IC50.
Data set [2] is described as follows: MTT proliferation inhibition, RPMI8226.
Method: as §3
Data set [3] addresses Human proteasome chymotrypsin-like protease (Homo sapiens, UniProt P28074). As to the kind of experiment: Proteasome CT-L inhibition, fluorescent substrate Suc-Leu-Leu-Val-Tyr-AMC. The format is biochemical. The source says: Experimental Method: By using a fluorescent substrate Suc-Leu-Leu-Val-Tyr-AMC to observe the inhibition of various compounds on activity of the enzyme, the inhibitory effect of the compounds was preliminarily evaluated. Human proteasome chymotrypsin-like protease may hydrolyze the sequence Tyr-AMC of the substrate to release AMC.

For data set [4], the target named is proteasome T-L active site (Homo sapiens, UniProt Q99436). The data set can be described thus: Proteasome T-L inhibition, substrate Bz-Val-Gly-Arg-AMC. The class given is biochemical.
Another data set relates to HELA. The data set can be described thus: MTT cell activity, HELA. The class given is cell-based. To be noted: Homo sapiens.
The subject of data set [5] is subcutaneous xenograft of human myeloma RPMI 8226. As to the kind of experiment: Growth inhibition of subcutaneous xenograft of human myeloma RPMI 8226 in NOD/SCID mice. The class given is in vivo. To be noted: for Tumor inhibition (%) / Tumor weight (g) mean ± SD: RPMI8226 xenograft NOD/SCID mice; for Tumor weight (g), single animals: individual mice. As to the method:
Experimental Method: Human myeloma RPMI8226 cell strain was inoculated subcutaneously at right flank of NOD/SCID mice with an inoculation quantity of 1×10^7 cells/mouse. After forming a xenograft, the experiment was started.
The diameters of subcutaneous xenografts of NOD/SCID mice were measured with a vernier caliper. After the tumor was grown to the size of 100-300 mm^3, the animals were grouped randomly. Equal volume of blank solvent was administered to the group of solvent control. During the experimentation, the diameters of subcutaneous xenografts were measured twice a week, and the mice were weighed at the same time.

The next data set deals with MM-1R. As to the kind of experiment: MTT cell activity, MM-1R. The settings on record: 100 nM. The class given is cell-based.
Another data set concerns LP1. The data set can be described thus: MTT proliferation inhibition, LP1. To be noted: Homo sapiens, LP-1. The class given is cell-based. As to the method:
(§1) […] of DMSO was added for dissolution.
(§2) The experimental method may be referred to Test Example 2, except that the cell strains of RPMI8226 and NCI-H929 were replaced with corresponding tumor cells.

Another data set concerns HCT116. The data set can be described thus: MTT proliferation inhibition, HCT116. The settings on record: Homo sapiens. The class given is cell-based. As to the method:
as §1, §2

The test system of a further data set is MM-1S. As to the kind of experiment: MTT cell activity, MM-1S. The format is cell-based. To be noted: Homo sapiens, MM1.S; 100 nM.
For a further data set, the system named is PC-3. As to the kind of experiment: MTT proliferation inhibition, PC-3. The format is cell-based. To be noted: Homo sapiens. As to the method:
as §1, §2

A further data set can be described thus: MTT cell activity, BORT. The class given is cell-based.
In another data set the test system is K562. The data set can be described thus: MTT cell activity, K562. The format is cell-based. The settings on record: Homo sapiens.
A further data set concerns MCF-7. The data set can be described thus: MTT proliferation inhibition, MCF-7. The class given is cell-based. To be noted: Homo sapiens, MCF7. As to the method: as §1, §2
Another data set deals with MGC-803. The data set can be described thus: MTT proliferation inhibition, MGC-803. The format is cell-based. To be noted: Homo sapiens. As to the method: as §1, §2
Data set [6] addresses proteasome PGPH active site (Homo sapiens, UniProt P28072). As to the kind of experiment: Proteasome PGPH inhibition, substrate Z-Leu-Leu-Glu-AMC. The format is biochemical.
The subject of another data set is NCI-H929 cell. As to the kind of experiment: MTT proliferation inhibition, NCI-H929. The settings on record: Homo sapiens, NCI-H929, 72 h, read-out: Cytotoxicity IC50 (nM) NCI-H929 cell.
The subject of another data set is RPMI8226 cell. The data set can be described thus: MTT proliferation inhibition, RPMI8226. To be noted: Homo sapiens, RPMI-8226, 72 h, read-out: Cytotoxicity IC50 (nM) RPMI8226 cell.

The IC50 is the point on the concentration scale where inhibition reaches its midpoint.

Method for MM-1S: as §3
Method for MTT cell activity, BORT: as §3
Method for NCI-H929 cell: as §3
Method for RPMI8226 cell: as §3

`CC(C)C[C@H](NC(=O)N1CCC(C(=O)Nc2ccc(F)cc2)CC1)C(=O)N[C@@H](Cc1ccccc1)C(=O)N[C@@H](CC(C)C)C(=O)C1(C)CS1` (stereo partly drawn) [Compound 5u, 4-(4-fluorophenyl carbamoyl)piperidin-1-oyl-Leu-Phe-Leu-cyclothione]: the 50% inhibitory concentration (IC50) in data set [1] and in data set [2] was over 1000 nM in each case.

With `CC(C)C[C@H](NC(=O)N1CCN(C(=O)c2cnccn2)CC1)C(=O)N[C@@H](Cc1ccccc1)C(=O)N[C@@H](CC(C)C)C(=O)[C@@]1(C)CO1` [Compound 5c, 4-(pyrazin-2-oyl)piperazin-1-oyl-Leu-Phe-Leu-epoxy ketone], the IC50 in data set [1] was 100 nM; in [2] it was 28.9 nM; in [3], 90.8 nM.

For the compound `CC(C)C[C@H](NC(=O)N1CCC(C(=O)Nc2cnccn2)CC1)C(=O)N[C@@H](Cc1ccccc1)C(=O)N[C@@H](CC(C)C)C(=O)C1(C)CN1` (stereo partly drawn) [Compound 5v, 4-(pyrazin-2-yl carbamoyl)piperidin-1-oyl-Leu-Phe-Leu-aziridinone], the IC50 in [1] and in data set [2] was over 1000 nM throughout.

Regarding `CC(C)C[C@H](NC(=O)N1CCC(C(=O)Nc2ccccn2)CC1)C(=O)N[C@@H](Cc1ccccc1)C(=O)N[C@@H](CC(C)C)C(=O)[C@@]1(C)CO1` [Compound 5k, 4-(pyridin-2-yl carbamoyl)piperidin-1-oyl-Leu-Phe-Leu-epoxy ketone], the IC50 in [1] amounted to 15.3 nM; in data set [4], 3180 ± 47.2 nM; with LP1 it was 15.2 ± 2.82 nM; in data set [2], 2.5 nM; in data set [3], 1.5 nM; with HCT116 (HCT-116, read-out: IC50 HCT116) it was 0.00572 ± 0.00072 µM. Further, the IC50 in the data set with PC-3 amounted to 7.74 ± 0.77 µM; in the data set on MCF-7, 0.42 ± 0.04 µM; with MGC-803, 3.72 ± 0.13 nM; in data set [6] (read-out: IC50 (nM) PGHP) it was 485 ± 26.1 nM. The “T-L (Fold/CT-L)” value in data set [4] (ratio of T-L IC50 to CT-L IC50) was “(2107.0)”. In addition, the activity at 10 µM was 55.8 ± 3.53% in the data set on HELA and 55.6 ± 1.53% with K562. In addition, in data set [5] (4 mg/kg), the “Tumor inhibition (%)” value is given as 53.62%. Further, the “Tumor weight (g) mean ± SD” value in [5] (4 mg/kg) was 0.59 ± 0.24 g. The “Tumor weight (g), single animals” value in [5] (4 mg/kg) was 0.20 g and 0.66 g and 0.44 g and 0.52 g and 0.72 g and 0.98 g. Further, the activity at 0.1 µM was 88.2 ± 7.24% with MM-1R and 72.2 ± 3.19% with MM-1S. The compound further had an activity at 1 µM in the data set “MTT cell activity, BORT” of 54.5 ± 2.13%. In addition, in data set [6] (ratio of PGHP IC50 to CT-L IC50), the “PGHP (Fold/CT-L)” value came to 321.0.

For `CCN1CC1(C)C(=O)[C@H](CC(C)C)NC(=O)[C@H](Cc1ccccc1)NC(=O)[C@H](CC(C)C)NC(=O)N1CCC(C(=O)Nc2cnccn2)CC1` (stereo partly drawn) [Compound 5w, 4-(pyrazin-2-yl carbamoyl)piperidin-1-oyl-Leu-Phe-Leu-(N-ethyl aziridinone)], the IC50 in data set [1] and in data set [2] was over 1000 nM each time.

Turning to `CC(C)C[C@H](NC(=O)N1CCC(C(=O)Nc2cnccn2)CC1)C(=O)N[C@@H](Cc1ccccc1)C(=O)N[C@@H](CC(C)C)C(=O)C1(C)CS1` (stereo partly drawn) [Compound 5t, 4-(pyrazin-2-yl carbamoyl)piperidin-1-oyl-Leu-Phe-Leu-cyclothione], the IC50 in [1] and in data set [2] was over 1000 nM in each case.

For `CC(C)C[C@H](NC(=O)[C@H](CCc1ccccc1)NC(=O)CN1CCOCC1)C(=O)N[C@@H](Cc1ccccc1)C(=O)N[C@@H](CC(C)C)C(=O)[C@@]1(C)CO1` [Carfilzomib, reference compound], the concentration for half-maximal inhibition (IC50) was 28.8 nM with NCI-H929 cell; 22.7 ± 2.51 nM in the data set on LP1; 3 nM with RPMI8226 cell; 8.93 ± 1.44 µM with HCT116 (HCT-116, MTT); 24.2 ± 2.72 µM with PC-3; 1.02 ± 0.07 µM with MCF-7. The compound further yielded an IC50 in the data set on MGC-803 of 8.95 ± 0.12 nM. Moreover, the results for the activity at 10 µM with HELA and in the data set on K562 were 61.2 ± 3.44% and 58.6 ± 1.04%, respectively. Further, in [5] (4 mg/kg), the “Tumor inhibition (%)” value is 58.10%. For the same compound, the “Tumor weight (g) mean ± SD” value in [5] (4 mg/kg) came out at 0.53 ± 0.21 g. Besides, in data set [5] (4 mg/kg), the “Tumor weight (g), single animals” value was 0.57 g and 0.38 g and 0.32 g and 0.85 g. Moreover, the activity at 0.1 µM with MM-1R was found to be 92.2 ± 6.34%; with MM-1S it was 76.2 ± 1.36%. In addition, the activity at 1 µM in the data set “MTT cell activity, BORT” was 61.1 ± 2.49%.

`CC(C)C[C@H](NC(=O)[C@H](Cc1ccccc1)NC(=O)c1cnccn1)B(O)O` [Bortezomib]: in the data set with NCI-H929 cell, the IC50 is 9.5 nM. For the same compound, in data set [5] (1 mg/kg), the “Tumor inhibition (%)” value is 34.78%; the “Tumor weight (g) mean ± SD” value was determined as 0.83 ± 0.25 g; the “Tumor weight (g), single animals” value is 1.21 g and 0.38 g and 0.92 g and 0.90 g and 0.74 g and 0.80 g. Moreover, the IC50 in the data set with RPMI8226 cell turned out to be 1.8 nM.
